Data reported in US9932300B2, “N,N′-diarylurea compounds and N,N′-diarylthiourea compounds as inhibitors of translation initiation” (President and Fellows of Harvard College, priority 2009, dated 2018).

Tested on: eIF2-GTP-Met-tRNAi ternary complex
Experiment: Ternary complex assay (dual luciferase, firefly/renilla ratio) in stable KLN-tTA/pBISA-DL(ATF-4) cells; HTS and hit confirmation
Type: cell-based, mouse
Set-up: Activity 10 uM / Activity 2.5 uM / Activity 5 uM: unit not given here
Conditions: confirmed hits of the screen (Table 5); for Activity 2.5 uM: compound at 2.5 uM; for Activity 10 uM: compound at 10 uM; for Activity 5 uM: compound at 5 uM

Compound | Activity 2.5 uM | Activity 10 uM | Activity 5 uM
CC(=O)C1C(=O)C(=O)N(c2ccc([N+](=O)[O-])cc2)C1=O.[Na+] (stereo not drawn) [Compound 657424] | 1.17 | 3.36 | –
O=C1c2ccccc2C(=O)C2CC(c3ccccc3)=CCC12 (stereo not drawn) [Compound 38062] | 2.61 | 5.58 | –
COc1ccc(NC(=O)Nc2ccccc2Cl)c(Cl)c1 [Compound 191346] | – | 4.4055 | 3.018
COc1ccc2nc(CCc3ccccc3)ccc2c1 [Compound 35424] | 2.55 | 3.07 | –
O=C(N/N=C/c1ccccc1O)c1ccccc1.[Cu+2] [Compound 607085] | 2.21 | 3.55 | –
F[C-](C(F)(F)F)C(F)(F)F.[CH]1[CH][CH][CH][CH]1.[Co+][I].c1ccc(P(CCP(c2ccccc2)c2ccccc2)c2ccccc2)cc1 [Compound 633997] | 17.11 | 12.56 | –
CC(=O)Oc1ccc(N(CCCl)CCCl)cc1OC(C)=O [Compound 130216] | 0.51 | 4.77 | –
[Cl][Hg][Cl].c1cnccn1 [Compound 65429] | 3.49 | – | –
COC(=O)C1CCC(/C(C#N)=C2/CCC(C(=O)OC)[N-]2)=N1.COC(=O)C1CCC(/C(C#N)=C2/CCC(C(=O)OC)[N-]2)=N1.[Cu+2] (stereo not drawn) [Compound 617738] | 1.05 | 7.65 | –
Cc1cc(C)c(C(=O)Oc2ccc3ccccc3c2)c(C)c1 [Compound 157507] | 2.07 | 3.33 | –
ClCCN(CCCl)c1ccc(C2N(Cc3ccccc3)c3ccccc3N2Cc2ccccc2)cc1 [Compound 96306] | – | 5.7 | 2.2
CCCCCCCCCCCCCCCC[N+](C)(C)CCOC(C)=O.O=S(=O)([O-])C(F)(F)F [Compound 297153] | 0.95 | 4.39 | –
COC1/C=C/OC2(C)Oc3c(C)c(O)c4c(O)c(c(C=NN5CCCCCCCC5)c(O)c4c3C2=O)NC(=O)/C(C)=C/C=C/C(C)C(O)C(C)C(O)C(C)C(OC(C)=O)C1C (stereo not drawn) [Compound 172656] | – | 3.9 | 1.6
Cc1c(C(=O)/C=C/c2ccccc2[N+](=O)[O-])[n+](=O)c2ccccc2n1[O-] [Compound 621482] | 1.17 | 5.15 | –
C/C(=N/O)c1ccc2c(c1)C(=NO)c1cc(/C(C)=N/O)ccc1-2 [Compound 642485] | 1.93 | 3.59 | –
CC1=C(Br)C(=O)C(c2c(C)cc(C)c(Br)c2C)=C(Br)C1=O [Compound 159569] | – | 5.804 | 3.21
O=C(Nc1ccc2ccccc2c1)c1ccc(Cl)cc1 [Compound 205530] | 3.08 | 3.34 | –
Oc1c(Cl)cc(Cl)cc1Cc1cc(Cl)cc(Cl)c1O [Compound 402193] | 0.56 | 3.19 | –
O=C(CCl)N1c2ccccc2Sc2ccccc21 [Compound 71676] | – | 4.1015 | 2.922
CC(=O)c1cccc(N=NNc2cccc(C(C)=O)c2)c1 [Compound 85646] | – | 4.18 | 3.127
O=C1c2ccccc2-c2nc3cc4ccccc4cc3nc21 [Compound 163547] | 3.27 | 4.38 | –
O=C1c2ccccc2C(=O)c2c1ccc1c2[nH]c2ccccc21 [Compound 92938] | 3.41 | 4.68 | –
Clc1ccc(-c2cc(C3CO3)c3cc(Cl)cc(Cl)c3n2)cc1 (stereo not drawn) [Compound 112369] | – | 3.1 | 1.4
CC1=C(C)CC2C(=O)C(C(O)CC(C)C)=CC(=O)C2C1 (stereo not drawn) [Compound 287413] | 0.68 | 17.06 | –
Cc1cc(C(O)(c2ccc(N)cc2)c2ccc(N)cc2)ccc1N.Nc1ccc(C(O)(c2ccc(N)cc2)c2ccc(N)cc2)cc1 [Compound 56345] | – | 3.64 | 3.4
N#Cc1c(N)nc([Se]CC(=O)c2ccc(Cl)cc2)c(C#N)c1-c1ccco1 [Compound 666131] | 4.12 | 8.72 | –
Cc1cccc(/C=N\NC(=S)N2CCCCC2)n1 [Compound 667875] | 4.59 | 7.27 | –

Compound | Activity 2.5 uM | Activity 10 uM | Activity 5 uM
CCCCCCCCCCCCOC(=O)c1cc(O)c(O)c(O)c1 [Compound 133463] | – | 4.63 | 8.8
COc1ccc(N=[N+]([O-])c2ccc(OC)cc2)cc1 [Compound 694092] | – | 5.898 | 4.958
O=C1c2ccccc2C(=O)c2c1ccc1c2CCCC1 [Compound 230359] | – | 8.3955 | 4.465
CCCCCCCCCCCC[N+](C)(C)C.[O-]c1c(Cl)c(Cl)c(Cl)c(Cl)c1Cl [Compound 85573] | – | 3.1 | 2.1
CCOC(=O)/C(=C\c1ccc(N(C)C)cc1)[Se]c1ccccc1 [Compound 638113] | 1.87 | 3.17 | –
Cl.c1ccc2c(c1)Cn1c-2nc2ccccc21 [Compound 163482] | 1.588 | 3.207 | –
O=C(Nc1ccc2ccccc2c1)c1cc2ccccc2cc1O [Compound 42112] | 3.76 | 3.76 | –
CN1c2ccccc2C(c2ccccc2)c2ccc(Nc3ccccc3)cc21.Cl (stereo not drawn) [Compound 35730] | 5.35 | 6.76 | –
CCCCCCCCCCCCCC[n+]1ccccc1.[Cl-] [Compound 82910] | – | 12.4425 | 7.654
ClCCN(CCCl)c1ccc(C2=Nc3cccc4cccc(c34)N2)cc1 [Compound 78577] | 0.74 | 3.56 | –
CCC[CH2][Sn]1([CH2]CCC)[O]C2C(CO)OC(n3c(Br)c(C#N)c4c(N)ncnc43)C2[O]1 (stereo not drawn) [Compound 291104] | 1.4 | 3.83 | –
CCCCC(OC(=O)c1ccccc1)c1cc(OC(=O)c2ccccc2)c2c(c1OC(=O)c1ccccc1)CC(C)=C(C)C2 (stereo not drawn) [Compound 287407] | 3.93 | 36.2 | –
CN(C)c1ccc(C(=O)Cc2ccc3ccccc3n2)cc1 [Compound 240577] | 2.68 | 4.63 | –
c1ccc(-c2ccc(-c3cnc(-c4ccc(-c5ccccc5)cc4)o3)cc2)cc1 [Compound 24863] | 1.87 | 3.22 | –
c1ccc2ncc(-c3ccc4ccccc4n3)cc2c1 [Compound 159209] | – | 8.5 | 4.3
Cl.Cn1c(N)nc(-c2ccc(Cl)cc2)c1SSc1c(-c2ccc(Cl)cc2)nc(N)n1C [Compound 658830] | 0.48 | 4.21 | –
Cc1cc2c(C(C)C)c(O)c(O)c(C=Nc3ccc([N+](=O)[O-])cc3)c2c(O)c1-c1c(C)cc2c(C(C)C)c(O)c(O)c(C=Nc3ccc([N+](=O)[O-])cc3)c2c1O [Compound 408712] | 1.57 | 21.65 | –
CN(C)c1ccc(C(C[N+](=O)[O-])(c2ccc(N(C)C)cc2)c2ccc(N(C)C)cc2)cc1 [Compound 156572] | – | 7.9345 | 7.884
COc1cccc2c1C(=O)c1c(O)c3c(c(O)c1C2=O)C[C@@](O)(C(=O)COC(C)=O)C[C@@H]3OC1CC(N)C(O)C(C)O1.Cl (stereo partly drawn) [Compound 149581] | – | 4.3 | 3.5
Cl.NC(N)=N/N=C/N/N=C/c1ccccc1O [Compound 75971] | – | 3.3355 | 3.111
c1ccc(N/N=C(/CC/C(=N\Nc2ccccc2)c2ccccc2)c2ccccc2)cc1 [Compound 146216] | 2.73 | 5.04 | –
CC(=O)Oc1cccc2cc3cc(C)cc(OC(C)=O)c3c(OC(C)=O)c12 [Compound 112921] | 97.42 | 242.82 | –
S=c1nccc[nH]1.[Pt] [Compound 321198] | – | 9.062 | 8.313
O=C(O)c1ccc(/C=N\Nc2ccccc2)cc1 [Compound 227290] | – | 6.8065 | 5.935
Cc1ccc(Sc2ccc3ccccc3n2)cc1 [Compound 340215] | 2.4 | 3.11 | –
CN(C)CC1CC2C3CC=C4CC(O)CCC4(C)C3CCC2(C)C1=O (stereo not drawn) [Compound 124738] | 0.79 | 3.7 | –
